The values that follow come from patent US20070203085A1, “Methods For Interfering With Fibrosis” (priority 2004, published 2007).

Assay [1] has as its system sgk1+/+ and sgk1−/− mice. Nature of the assay: DOCA/high salt treatment of sgk1+/+ and sgk1−/− mice: blood pressure, plasma electrolytes, salt intake. Type of assay: in vivo. As to the method: To explore whether SGK1 may be involved in the signalling of cardiac fibrosis a pellet continuously releasing DOCA (2.4 mg/day) was implanted into both sgk1+/+ and sgk1−/− mice along with 1% NaCl in the drinking water.
Mice deficient in SGK1 (sgk1−/−) were generated as previously described 9. Wild type (sgk1+/+) and SGK1 knockout (sgk1−/−) mice were implanted with a 21 day release 50 mg DOCA pellet (Innovative Research of America, Sarasota, Fla.) in the neck area (28) during anesthesia (intraperitoneal medetomidin 0.5 mg/kg+midazolam 5 mg/kg+fentanyl 0.05 mg/kg which was reversed by subcutaneous atipamezol 2.5 mg/kg+flumazenil 0.5 mg/kg+naloxon 1.2 mg/kg). One day before implantation of DOCA pellets, sgk1−/− and sgk1+/+ mice were weighed and placed individually in metabolic cages (Tecniplast Hohenpeissenberg, Germany) for basal 24 hour urine collection. Mice had free access to a standard mouse diet (Altromin, Heidenau, Germany) and tap water and/or 1% or 2% NaCl. The inner wall of the metabolic cages was siliconized and urine was collected under water-saturated oil. Systolic arterial blood pressure was determined by the tail-cuff method before and on days 1, 2, 4, 6, 10 and 14 of DOCA/1% NaCl treatment 29. On day 18 of DOCA/high salt treatment, 24 hour urine and body weight were again determined, animals anesthetized (intraperitoneal ketamine and xylazine) and 200 μl of blood withdrawn into heparinized capillaries by puncturing the retro-orbital plexus. Plasma and urinary concentrations of Na+ and K+ were measured by flame photometer (ELEX 6361, Eppendorf, Germany), Cl— concentrations by electrometric titration (Chloridometer 6610, Eppendorf, Germany), Ca2+, phosphorus and creatinine were assessed by commercial diagnostic kits (Sigma, Munich, Germany).

For assay [2], the system named is sgk1+/+ and sgk1−/− mice. Nature of the assay: Cardiac fibrosis by microscopy (H&E and Masson's trichrome) after DOCA/high salt. Type of assay: in vivo. To be noted: 18 day DOCA/high salt. As to the method: Hearts from untreated or DOCA/high salt treated (18 days) sgk1+/+ and sgk1−/− mice were quickly removed under anesthesia, the weight determined and fixed in 4% paraformaldehyde/0.1 M sodium phosphate buffer (pH 7.2) overnight and embedded in paraffin. Dewaxed 5 μm thick heart muscle sections were stained with H&E and Masson's trichrome (30). Stained paraffin sections were analysed on a Zeiss Axioplan microscope (Zeiss, Jena, Germany). Areas were measured on digitized images using an Axiocam video camera (Zeiss, Jena, Germany) using the manufacture's software (Axiovision, Zeiss, Jena, Germany). Total tissue areas were measured with a 4× objective; fibrotic areas were identified and quantified using a 20× objective. The degree of fibrosis was then calculated as a percentage of total tissue area.

Assay [3] relates to sgk1+/+ and sgk1−/− mice. The experiment in a line: Cardiac gene transcription after DOCA/high salt (microarray analysis, real-time PCR). Type of assay: in vivo. How it is done: Total RNA was isolated from hearts obtained from untreated or DOCA/high salt (48 h) treated sgk1+/+ and sgk1−/− mice using the Qiagen RNeasy Fibrous Tissue Midi Kit according to the manufacture's instructions (Qiagen, Hilden, Germany). Using total RNA from hearts of DOCA/high salt or sham-treated sgk1−/− and sgk1+/+ mice, second-strand syntheses were generated using a commercially available kit (Invitrogen Life Technologies, Rockville, Md.) and an oligo d(T)24 T7 primer. cRNA was generated using biotin-labelled CTP and UTP by in vitro transcription using a T7 promoter-coupled double stranded cDNA as template and the T7 RNA transcript labelling kit (ENZO Diagnostics, Farmingdale, N.Y.). The cRNA was fragmented and hybridised to the mouse genome MOE430A oligonucleotide array chip (Affymetrix, Santa Clara, Calif.). The array chips were then stained using phycoerythrin conjugated streptavidin (Molecular Probes, Invitrogen Life Technologies, Rockville, Md.) and the fluorescence intensities were determined using a laser confocal scanner (Agilent, Affymetrix, Santa Clara, Calif.). The intensity of the scanned images was analysed using Microarray Suite Version 5 (Affymetrix, Santa Clara, Calif.). Global scaling was applied to all arrays such that the mean intensity of each array was equivalent. In global scaling, the raw signal value of each probe cell was multiplied by a scaling factor.
In general terms: In qPCR the cycle at which signal appears reflects the starting amount.

In assay [4] the test system is CTGF. The experiment in a line: Cardiac CTGF expression by Western blotting after DOCA/salt. The following applies: for CTGF expression in cardiac tissue (Western blot): DOCA/high salt for 18 days. Type of assay: in vivo, mice. How it is done: Whole hearts from untreated and DOCA/high salt treated (18 days) sgk1+/+ and sgk1−/− mice were removed and immediately frozen in liquid nitrogen, the tissue was then homogenised using a glass homogeniser in lysis buffer containing 50 mM Tris-HCl, pH 7.4, 100 mM NaCl, 1 mM EDTA, 1 mM EGTA, 50 mM sodium fluoride, 5 mM sodium pyrophosphate, 1 mM sodium orthovanadate, 1% Triton X-100, 1% sodium deoxycholate, 1% sodium doecyl sulphate and protease cocktail inhibitor (Roche, Basel, Switzerland), the homogenates were centrifuged at 10,000 rpm, 4° C. for 15 min, the supernatant was removed and used for Western blotting. sgk1+/+ and sgk1−/− mouse lung fibroblasts in 60 mm culture dishes were serum deprived for 18 h prior to the addition of DOCA (10 μM), 24 h later the cells were lysed. Whole cell lysates (50 μg) and heart homogenates (70 μg) were separated by SDS-page (10% Tris-Glycine), transferred to nitrocellulose membranes, blocked for 1 h in blocking buffer (5% fat-free milk in PBS containing 0.1% Tween) and incubated overnight at 4° C. with a goat polyclonal CTGF primary antibody (diluted 1:400 in blocking buffer, Santa Cruz, Heidelberg, Germany). After incubation with a HRP-conjugated anti-goat secondary antibody (Santa Cruz, Heidelberg, Germany) visualization with ECL was performed according to manufacture's instructions (Amersham, Freiburg, Germany). Membranes were also probed with a primary β-tubulin (Santa Cruz, Heidelberg, Germany) antibody as a loading control. Densitometric analysis of CTGF was performed using Scion Image (Scion, Md., USA) and normalized using β-tubulin.
Background: Immunoblotting shows a protein as a band on a membrane.

The subject of assay [5] is CTGF. Nature of the assay: CTGF expression in primary mouse lung fibroblasts after DOCA stimulation (Western blot). Type of assay: cell-based. To be noted: DOCA 10 μM, 24 h; sgk1+/+ and sgk1−/− cells. How it is done: To harvest lung fibroblasts from sgk1+/+ and sgk1−/− mice (8-14 weeks old), whole lungs were removed and transferred to 90 mm cell culture dishes containing 2 ml of DMEM supplemented with 10% fetal calf serum, 100 U/ml Penicillin, […] Streptomycin and 2 mM L-glutamine (Gibco-Invitrogen, Karlsruhe, Germany). The tissue was cut into small pieces and cultured under standard cell culture conditions (37° C., 5% CO2). Cell growth was observed 2-4 days after initial plating. Fibroblasts were identified by positive staining for fibronectin and used in experiments between passages 2-6. Increase of SGK1 mRNA by DOCA treatment and absence of SGK1 in sgk1−/− mice lung fibroblasts was confirmed by realtime PCR (data not shown). […]

With `CC(=O)OCC(=O)[C@H]1CC[C@H]2[C@@H]3CCC4=CC(=O)CC[C@]4(C)[C@H]3CC[C@]12C` [DOCA], the hypokalemia entry in the assay on sgk1+/+ and sgk1−/− mice [1] (DOCA/high salt for 18 days, sgk1+/+ vs sgk1−/− mice) is “significant hypokalemia in sgk1+/+ but not in sgk1−/− mice”. The “salt intake from bottle 2 (1% NaCl)” value in the assay with sgk1+/+ and sgk1−/− mice [1] (sgk1+/+ mice, after implanting the DOCA pellet) was “pronounced increase in salt intake”. The blood pressure entry in the assay on sgk1+/+ and sgk1−/− mice [1] (sgk1−/− and sgk1+/+ mice, DOCA/high salt for 18 days) is on record as “statistically significant increases in blood pressure”. In addition, the “fibrosis of the heart” value is “marked fibrosis of the heart” with sgk1+/+ and sgk1−/− mice [2] (sgk1+/+ mice); “without any appreciable effect on the heart” in the assay with sgk1+/+ and sgk1−/− mice [2] (sgk1−/− mice). Besides, the “fold increase in SGK1/GAPDH copy number (SGK1 transcription)” value in the assay on sgk1+/+ and sgk1−/− mice [3] (heart, sgk1+/+ mice, 48 h DOCA/high salt vs untreated sgk1+/+ mice, real-time PCR) was 2.10±0.14 fold. Besides, the “induction of fibrosis genes (procollagens, integrin α5, proteoglycan 4, CTGF), microarray” value is given as “induced several genes involved in the pathogenesis of fibrosis” in the assay on sgk1+/+ and sgk1−/− mice [3] (sgk1+/+ mice, 48 h DOCA/high salt); “none of these genes were induced” in the assay on sgk1+/+ and sgk1−/− mice [3] (sgk1−/− mice, DOCA/high salt). Further, the “cardiac CTGF expression, CTGF/β-tubulin densitometric analysis” value in the assay on CTGF [4] (sgk1+/+ mice, DOCA/1% salt (untreated: 0.9±0.2), P<0.01) is reported as 4.7±1.0 arbitrary units; in the assay on CTGF [4] (sgk1−/− mice, DOCA/high salt (untreated: 1.5±1.0)) it was 1.7±0.7 arbitrary units. The “CTGF expression in cardiac tissue (Western blot)” value in the assay with CTGF [4] (sgk1+/+ mice) is given as “markedly upregulated CTGF expression”; with CTGF [4] (sgk1−/− mice), “unaltered”. In addition, in the assay on CTGF [5], the “CTGF levels in primary mouse lung fibroblasts” value is “elevated CTGF levels only in the sgk1+/+ cells”.
